Experimental data: patent US7579474B2, “Substituted piperidines as modulators of dopamine neurotransmission” (NSAB, Filial AF Neurosearch AB, Sverige, priority 2004, dated 2009)
Values joined by “and” are separate entries in the source; they are usually repeats but may differ in a detail not shown here. Equal entries are not always repeated. Structures can show the parent of a compound that is named as a salt.

Tests used:
[1] = system: DOPAC (3,4-dihydroxyphenylacetic acid) in the rat striatum; experiment: Increase of DOPAC in the rat striatum after systemic administration (in vivo neurochemistry); details: maximal effects limited to 350-400% of control, range covers 95% of fits, Inactive = inactive at 100 μmol/kg; for ED50: sc; for ED50 DOPAC*: s.c.
From the text: After the behavioural activity sessions, the rats were decapitated and their brains rapidly taken out and put on an ice-cold petri-dish. The limbic forebrain, the striatum, the frontal cortex and the remaining hemispheral parts of each rat were dissected and frozen. Each brain part was subsequently analyzed with respect to its content of monoamines and their metabolites.
The monoamine transmitter substances (NA (noradrenaline), DA (dopamine), 5-HT (serotonin)) as well as their amine (NM (normethanephrine), 3-MT (3-methoxytyramine)) and acid (DOPAC (3,4-dihydroxyphenylacetic acid), 5-HIAA (5-hydroxyindoleacetic acid), HVA (homovanillic acid)) metabolites are quantified in brain tissue homogenates by HPLC separations and electrochemical detection.
The analytical method is based on two chromatographic separations dedicated for amines or acids. Two chromatographic systems share a common auto injector with a 10-port valve and two sample loops for simultaneous injection on the two systems. Both systems are equipped with a reverse phase column (Luna C18(2), dp 3 μm, 50*2 mm i.d., Phenomenex) and electrochemical detection is accomplished at two potentials on glassy carbon electrodes (MF-1000, Bioanalytical Systems, Inc.). Via a T-connection the column effluent is passed to the detection cell or to waste. This is accomplished by two solenoid valves, which block either the waste or detector outlet. By not letting the chromatographic front reach the detector, better detection conditions are achieved. The aqueous mobile phase (0.4 ml/min) for the acid system contains Citric Acid 14 mM, Sodium Citrate 10 mM, MeOH 15% (v/v) and EDTA 0.1 mM. Detection potentials relative to Ag/AgCl reference is 0.45 and 0.60V. The aqueous ion pairing mobile phase (0.5 ml/min) for the amine system contains Citric Acid 5 mM, Sodium Citrate 10 mM, MeOH 9% (v/v), MeCN 10.5% (v/v), Decane Sulfonic Acid 0.45 mM, and EDTA 0.1 mM. Detection potentials relative to Ag/AgCl reference is 0.45 and 0.65V.
ED50 values for the increase of DOPAC in striatum are calculated by curve fitting. For most compounds, the evaluation is based on 20 animals over the dose range 0, 3.7, 11, 33 and 100 μmol/kg s.c. in one single experiment. The DOPAC levels are normalised to control and fitted by least square minimization to the function “End-(End-Control)/(1+(dose/ED50)^Slope)”. The four parameters are fitted with the restrictions: ED50>0, 0.5<Slope<3, 350<End<400 or End=200% of control (see table 1). To estimate confidence levels for the parameters, the fit is repeated 100 times with a random evenly distributed squared weight (0 to 1) for every measurement value. Presented ED50-ranges cover 95% of these values.

[2] = system: Locomotor activity in drug-naive rats; experiment: Locomotor activity in drug-naive rats; details: for Locomotor activity 0-60 min: drug-naive rats, recorded for 60 minutes; for Locomotor activity 30-60 min: drug-naive habituated rats, recorded between 30 and 60 minutes
[3] = system: Locomotor activity in MK-801 pre-treated rats; experiment: Locomotor activity in MK-801 pre-treated rats; details: MK-801 alone, 0.7 mg/kg i.p.; recorded 30-60 minutes; one group per experiment; 0.7 mg/kg
hERG ion channel = hERG ion channel (Homo sapiens, UniProt Q12809); experiment: Rb efflux through the hERG ion channel; format: cell-based; details: Rb efflux method
hERG ion channel, sequence (Q12809 whole entry): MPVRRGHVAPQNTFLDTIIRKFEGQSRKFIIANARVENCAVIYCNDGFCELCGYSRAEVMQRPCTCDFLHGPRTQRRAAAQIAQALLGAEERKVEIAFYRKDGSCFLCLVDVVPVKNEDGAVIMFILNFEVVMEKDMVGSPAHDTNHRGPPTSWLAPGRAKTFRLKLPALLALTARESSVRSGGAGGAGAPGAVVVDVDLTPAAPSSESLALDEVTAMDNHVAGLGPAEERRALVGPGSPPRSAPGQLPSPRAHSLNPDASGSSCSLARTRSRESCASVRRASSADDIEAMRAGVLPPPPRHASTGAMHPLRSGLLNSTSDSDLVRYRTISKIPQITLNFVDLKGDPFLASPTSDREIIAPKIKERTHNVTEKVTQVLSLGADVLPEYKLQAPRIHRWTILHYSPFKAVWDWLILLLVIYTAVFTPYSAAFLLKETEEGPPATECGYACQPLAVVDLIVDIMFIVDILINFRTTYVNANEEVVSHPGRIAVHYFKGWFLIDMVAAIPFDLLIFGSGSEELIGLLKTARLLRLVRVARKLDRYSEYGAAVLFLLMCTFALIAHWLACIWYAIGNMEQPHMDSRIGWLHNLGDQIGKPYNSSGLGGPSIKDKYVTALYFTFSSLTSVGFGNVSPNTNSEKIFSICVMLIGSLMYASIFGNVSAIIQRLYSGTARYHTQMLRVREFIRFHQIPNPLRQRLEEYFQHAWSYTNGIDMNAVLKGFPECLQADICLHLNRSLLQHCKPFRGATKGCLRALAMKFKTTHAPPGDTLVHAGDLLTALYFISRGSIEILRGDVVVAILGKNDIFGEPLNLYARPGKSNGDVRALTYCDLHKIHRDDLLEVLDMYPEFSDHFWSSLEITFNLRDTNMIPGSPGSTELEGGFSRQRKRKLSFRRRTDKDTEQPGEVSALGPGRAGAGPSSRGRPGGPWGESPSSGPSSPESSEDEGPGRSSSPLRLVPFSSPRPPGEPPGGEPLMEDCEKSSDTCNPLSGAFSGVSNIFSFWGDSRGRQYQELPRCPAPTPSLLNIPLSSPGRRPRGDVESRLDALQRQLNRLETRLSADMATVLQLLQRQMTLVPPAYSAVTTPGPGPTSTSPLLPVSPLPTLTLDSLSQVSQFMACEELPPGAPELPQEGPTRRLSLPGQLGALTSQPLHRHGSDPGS
From the text: The substances according to the present invention display a low potency at inhibiting the hERG channel, as measured by IC50 in a Rb+ efflux assay (Development and evaluation of high throughput functional assay methods for hERG potassium channel. Tang W, Kang 1, Wu X, Rampe D, Wang L, Shen H, Li Z, Dunnington D, Garyantes T. J Biomol Screen. 2001 October; 6(5):325-31), indicating a low risk for QT interval prolongation and arrhythmia in man.

CCCN1CCC(c2cccc(C(F)(F)F)c2)CC1
ED50 [1]: 84 µmol/kg

CCCN1CCC(O)(c2cccc(C(F)(F)F)c2OC)CC1
ED50 DOPAC* [1]: Inactive***

CCCCN1CCC(O)(c2cccc(S(C)(=O)=O)c2F)CC1
ED50 DOPAC* [1]: Inactive***

CCN1CCC(O)(c2cc(F)cc(C(F)(F)F)c2)CC1
ED50 DOPAC* [1]: Inactive***
ED50 DOPAC* ([1]; listed as comparative example 10): inactive

COCCN1CCC(O)(c2cccc(Cl)c2Cl)CC1
Locomotor activity 0-60 min ([2]; 11 μmol/kg): 7229 ± 769 counts/60 min ± SEM
Locomotor activity 0-60 min ([2]; 33 μmol/kg): 7669 ± 1029 counts/60 min ± SEM
Locomotor activity 0-60 min ([2]; 100 μmol/kg): 7542 ± 844 counts/60 min ± SEM

CCCN1CCC(O)(c2cccc(Cl)c2Cl)CC1 (as salt: hydrochloric acid salt)
melting point: 181 to 183 °C

COCCN1CCC(O)(c2cccc(Cl)c2Cl)CC1 (as salt: hydrochloric acid salt)
melting point: 135 to 137 °C

CCCN1CCC(O)(c2cccc(C(F)(F)F)c2F)CC1 (as salt: hydrochloric acid salt) [Example 1, 4-[2-FLUORO-3-(TRIFLUOROMETHYL)PHENYL]-1-PROPYLPIPERIDIN-4-OL]
melting point: 175 to 177 °C

COCCN1CCC(O)(c2ccc(Cl)c(C(F)(F)F)c2)CC1 (as salt: hydrochloric acid salt) [Example 2, 4-[4-CHLORO-3-(TRIFLUOROMETHYL)PHENYL]-1-(2-METHOXYETHYL)PIPERIDIN-4-OL]
melting point: 181 to 183 °C

CCN1CCC(O)(c2cccc(C(F)(F)F)c2F)CC1 (as salt: hydrochloric acid salt) [Example 3, 4-[2-FLUORO-3-(TRIFLUOROMETHYL)PHENYL]-1-ETHYLPIPERIDIN-4-OL]
melting point: 177 to 180 °C

COCCN1CCC(O)(c2cccc(C(F)(F)F)c2F)CC1 (as salt: hydrochloric acid salt) [Example 4, 4-[2-FLUORO-3-(TRIFLUOROMETHYL)PHENYL]-1-(2-M ETHOXYETHYL)PIPERIDIN-4-OL]
melting point: 159 to 160 °C

CCCCN1CCC(O)(c2cccc(C(F)(F)F)c2F)CC1 (as salt: hydrochloric acid salt) [Example 5, 4-[2-FLUORO-3-(TRIFLUOROMETHYL)PHENYL]-1-BUTYLPIPERIDIN-4-OL]
melting point: 138 °C

CCCN1CCC(O)(c2ccc(F)c(C(F)(F)F)c2)CC1 (as salt: hydrochloric acid salt) [Example 8, 4-[4-FLUORO-3-(TRIFLUOROMETHYL)PHENYL]-1-PROPYLPIPERIDIN-4-OL]
melting point: 179 to 181 °C

CCCCN1CCC(O)(c2ccc(C)c(C(F)(F)F)c2)CC1 (as salt: hydrochloric acid salt) [Example 9, 1-BUTYL-4-[4-METHYL-3-(TRIFLUOROMETHYL)-PHENYL]PIPERIDIN-4-OL]
melting point: 197 to 198 °C

C[C@]12N[C@H](Cc3ccccc31)c1ccccc12 [MK-801, reference compound]
Locomotor activity, MK-801 0.7 mg/kg i.p. [3]: 40367 ± 9127 counts/30 min ± SEM and 32169 ± 10605 counts/30 min ± SEM and 30819 ± 12771 counts/30 min ± SEM and 42061 ± 2219 counts/30 min ± SEM and 58370 ± 3007 counts/30 min ± SEM

CCCN1CCC(O)(c2cccc(S(C)(=O)=O)c2)CC1 [drawing 22]
ED50 DOPAC* [1]: Inactive***

CCCN1CCC(O)(c2cccc(C(F)(F)F)c2F)CC1 [drawing 25]
IC50 (hERG ion channel): 161 µM
ED50 [1]: 13 µmol/kg

CCN1CCC(O)(c2cccc(C(F)(F)F)c2F)CC1 [drawing 26]
IC50 (hERG ion channel): 424 µM
ED50 [1]: 65 µmol/kg

COCCN1CCC(O)(c2cccc(C(F)(F)F)c2F)CC1 [drawing 27]
IC50 (hERG ion channel): 350 µM
ED50 [1]: 43 µmol/kg

CCCCN1CCC(O)(c2cccc(C(F)(F)F)c2F)CC1 [drawing 28]
IC50 (hERG ion channel): 69 µM
ED50 [1]: 13 µmol/kg

CCCN1CCC(O)(c2ccc(F)c(C(F)(F)F)c2)CC1 [drawing 29]
IC50 (hERG ion channel): 60 µM
ED50 [1]: 76 µmol/kg

COCCN1CCC(O)(c2ccc(Cl)c(C(F)(F)F)c2)CC1 [drawing 30]
IC50 (hERG ion channel): 68 µM
ED50 [1]: 32 µmol/kg

CCCCN1CCC(O)(c2ccc(C)c(C(F)(F)F)c2)CC1 [drawing 31]
ED50 [1]: 56 µmol/kg

CCN1CCC(O)(c2cccc(C(F)(F)F)c2F)CC1 [drawing 32]
Locomotor activity 0-60 min ([2]; 11 μmol/kg): 7481 ± 1266 counts/60 min ± SEM
Locomotor activity 0-60 min ([2]; 33 μmol/kg): 11085 ± 2020 counts/60 min ± SEM
Locomotor activity 0-60 min ([2]; 100 μmol/kg): 11288 ± 1339 counts/60 min ± SEM

CCCCN1CCC(O)(c2ccc(C)c(C(F)(F)F)c2)CC1 [drawing 34]
Locomotor activity 0-60 min ([2]; 11 μmol/kg): 8188 ± 1055 counts/60 min ± SEM
Locomotor activity 0-60 min ([2]; 33 μmol/kg): 2879 ± 503 counts/60 min ± SEM
Locomotor activity 0-60 min ([2]; 100 μmol/kg): 2961 ± 928 counts/60 min ± SEM

CCCN1CCC(O)(c2cccc(Cl)c2Cl)CC1 [drawing 35]
Locomotor activity 0-60 min ([2]; 11 μmol/kg): 8897 ± 801 counts/60 min ± SEM
Locomotor activity 0-60 min ([2]; 33 μmol/kg): 9739 ± 2025 counts/60 min ± SEM
Locomotor activity 0-60 min ([2]; 100 μmol/kg): 7499 ± 1620 counts/60 min ± SEM

COCCN1CCC(O)(c2ccc(Cl)c(C(F)(F)F)c2)CC1 [drawing 36]
Locomotor activity 0-60 min ([2]; 11 μmol/kg): 7945 ± 1230 counts/60 min ± SEM
Locomotor activity 0-60 min ([2]; 33 μmol/kg): 5041 ± 2022 counts/60 min ± SEM
Locomotor activity 0-60 min ([2]; 100 μmol/kg): 4493 ± 1081 counts/60 min ± SEM

CCCN1CCC(O)(c2cccc(C(F)(F)F)c2F)CC1 [drawing 37]
Locomotor activity 0-60 min ([2]; 11 μmol/kg): 11764 ± 3106 counts/60 min ± SEM
Locomotor activity 0-60 min ([2]; 33 μmol/kg): 7506 ± 905 counts/60 min ± SEM
Locomotor activity 0-60 min ([2]; 100 μmol/kg): 3698 ± 294 counts/60 min ± SEM

COCCN1CCC(O)(c2cccc(C(F)(F)F)c2F)CC1 [drawing 38]
Locomotor activity 0-60 min ([2]; 11 μmol/kg): 6422 ± 1190 counts/60 min ± SEM
Locomotor activity 0-60 min ([2]; 33 μmol/kg): 6016 ± 1708 counts/60 min ± SEM
Locomotor activity 0-60 min ([2]; 100 μmol/kg): 4296 ± 847 counts/60 min ± SEM

CCCCN1CCC(O)(c2cccc(C(F)(F)F)c2F)CC1 [drawing 39]
Locomotor activity 0-60 min ([2]; 11 μmol/kg): 7668 ± 1716 counts/60 min ± SEM
Locomotor activity 0-60 min ([2]; 33 μmol/kg): 3213 ± 825 counts/60 min ± SEM
Locomotor activity 0-60 min ([2]; 100 μmol/kg): 1630 ± 302 counts/60 min ± SEM

CCCN1CCC(O)(c2ccc(F)c(C(F)(F)F)c2)CC1 [drawing 40]
Locomotor activity 0-60 min ([2]; 11 μmol/kg): 6114 ± 1032 counts/60 min ± SEM
Locomotor activity 0-60 min ([2]; 33 μmol/kg): 5906 ± 1340 counts/60 min ± SEM
Locomotor activity 0-60 min ([2]; 100 μmol/kg): 5546 ± 441 counts/60 min ± SEM

CCCCN1CCC(O)(c2ccc(C)c(C(F)(F)F)c2)CC1 [drawing 41]
Locomotor activity 30-60 min ([2]; 11 μmol/kg): 2092 ± 1437 counts/30 min ± SEM
Locomotor activity 30-60 min ([2]; 33 μmol/kg): 1337 ± 141 counts/30 min ± SEM
Locomotor activity 30-60 min ([2]; 100 μmol/kg): 1365 ± 460 counts/30 min ± SEM

CCCN1CCC(O)(c2cccc(C(F)(F)F)c2F)CC1 [drawing 42]
Locomotor activity 30-60 min ([2]; 11 μmol/kg): 3200 ± 1817 counts/30 min ± SEM
Locomotor activity 30-60 min ([2]; 33 μmol/kg): 1130 ± 344 (P = 0.06) counts/30 min ± SEM
Locomotor activity 30-60 min ([2]; 100 μmol/kg): 541 ± 145 counts/30 min ± SEM

CCCN1CCC(O)(c2ccc(F)c(C(F)(F)F)c2)CC1 [drawing 43]
Locomotor activity 30-60 min ([2]; 11 μmol/kg): 213 ± 180 counts/30 min ± SEM
Locomotor activity 30-60 min ([2]; 33 μmol/kg): 436 ± 246 counts/30 min ± SEM
Locomotor activity 30-60 min ([2]; 100 μmol/kg): 258 ± 134 counts/30 min ± SEM

CCCN1CCC(c2cccc(C(F)(F)F)c2F)CC1 [reference compound]
IC50 (hERG ion channel): 7.97 µM
ED50 [1]: 9 µmol/kg

CCCN1CCC(c2cccc(Cl)c2Cl)CC1 [reference compound]
IC50 (hERG ion channel): 5.66 µM
ED50 [1]: 41 µmol/kg

CCN1CCC(c2ccc(F)c(C(F)(F)F)c2)CC1 [reference compound]
IC50 (hERG ion channel): 23 µM
